Results published in the supplement of paper PMC8967900.

Columns and labels:
Assay in all cases: selective drug sensitivity score (sDSS, relative to normal bone marrow) (sDSS (score)); higher = more potent and effective on the cell line relative to normal bone marrow cells
Settings in all cases: 72 h
JURKAT = test system: JURKAT
DND-41 = test system: DND-41
TANOUE = test system: TANOUE
CCRF-CEM = test system: CCRF-CEM
380 = test system: 380
KASUMI-2 = test system: KASUMI-2
TMD5 = test system: TMD5
KOPN-8 = test system: KOPN-8
COG-LL-319h = test system: COG-LL-319h
MOLT-14 = test system: MOLT-14
HAL-01 = test system: HAL-01
RPMI-8402 = test system: RPMI-8402
MOLT-4 = test system: MOLT-4
CCRF-HSB2 = test system: CCRF-HSB2
REH = test system: REH
P30-OHKUBO = test system: P30-OHKUBO
MHH-CALL-3 = test system: MHH-CALL-3
PEER = test system: PEER
ALL-SIL = test system: ALL-SIL
COG-LL-402h = test system: COG-LL-402h
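Also: ALL cell lines in 384-well plates, five doses spanning 10,000-fold, each plate scaled between vehicle and 100 µmol/L benzalkonium chloride controls, sDSS an adapted area-under-curve metric.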

Row | Structure (SMILES) | selective drug sensitivity score (JURKAT) | selective drug sensitivity score (DND-41) | selective drug sensitivity score (TANOUE) | selective drug sensitivity score (CCRF-CEM) | selective drug sensitivity score 380 | selective drug sensitivity score (KASUMI-2) | selective drug sensitivity score (TMD5) | selective drug sensitivity score (KOPN-8) | selective drug sensitivity score (COG-LL-319h) | selective drug sensitivity score (MOLT-14) | selective drug sensitivity score (HAL-01) | selective drug sensitivity score (RPMI-8402) | selective drug sensitivity score (MOLT-4) | selective drug sensitivity score (CCRF-HSB2) | selective drug sensitivity score (REH) | selective drug sensitivity score (P30-OHKUBO) | selective drug sensitivity score (MHH-CALL-3) | selective drug sensitivity score (PEER) | selective drug sensitivity score (ALL-SIL) | selective drug sensitivity score (COG-LL-402h)
1 | Cn1nccc1Nc1nccc(-c2ccn([C@H](CO)c3ccc(Cl)c(F)c3)c(=O)c2)n1 [Ravoxertinib] (top concentration 10000 nM) | -0.8 | 4.5 | -3.2 | 2 | 4.9 | 4.2 | 3.2 | 13.6 | 10.2 | 0.1 | 1.9 | 1.9 | -1.2 | -1.2 | 1.2 | 3.5 | 9.7 | -0.3 | -3.2 | 3.4
2 | C/C=C1\NC(=O)[C@H]2CSSCC/C=C/[C@H](CC(=O)N[C@H](C(C)C)C(=O)N2)OC(=O)[C@H](C(C)C)NC1=O [Romidepsin] (top concentration 1000 nM) | 2.06 | 4.76 | -11 | 1.16 | 8.56 | 5.06 | 3.46 | 3.16 | 1.16 | 2.16 | -17.5 | 1.66 | 1.76 | 1.46 | 1.26 | 1.66 | 9.76 | 2.06 | 3.26 | 8.76
3 | CNCc1ccc(-c2[nH]c3cc(F)cc4c3c2CCNC4=O)cc1 [Rucaparib] (top concentration 10000 nM) | -0.58 | -0.38 | -0.58 | 1.32 | 11.5 | 3.02 | -0.38 | 5.12 | 6.32 | 1.62 | 4.32 | 0.32 | -0.58 | 1.22 | 1.52 | 0.42 | 13.8 | -0.08 | 0.22 | 2.42
4 | CC(C)(C)c1cnc(CSc2cnc(NC(=O)C3CCNCC3)s2)o1 [SNS-032] (top concentration 10000 nM) | -6.54 | -2.44 | -14 | -1.74 | -6.64 | -5.44 | -4.54 | -2.54 | -2.24 | -4.74 | -8.04 | -4.74 | -4.84 | -2.24 | -5.44 | -0.34 | -4.44 | -4.94 | -3.84 | 3.06
5 | Cc1c(C(=O)Nc2ccc(N3C[C@@H](C)O[C@@H](C)C3)nc2)cccc1-c1ccc(OC(F)(F)F)cc1 [Sonidegib] (top concentration 10000 nM) | 2.48 | 5.08 | -2.42 | -0.12 | -3.92 | -1.42 | -3.92 | 10.5 | 4.98 | 0.38 | -3.92 | 1.88 | 1.08 | -1.42 | 0.98 | 5.68 | -3.92 | 0.88 | 1.08 | -3.92
6 | CNC(=O)c1cc(Oc2ccc(NC(=O)Nc3ccc(Cl)c(C(F)(F)F)c3)cc2)ccn1 [Sorafenib] (top concentration 1000 nM) | 0.4 | 0 | 0 | 0 | 0 | 0 | 0 | 2 | 0 | 0 | 2.9 | 0 | 0 | 0 | 0.2 | 2.2 | 0 | 0.1 | 0 | 0
7 | CN1CCN(c2nc(C3=C(c4c[nH]c5ccccc45)C(=O)NC3=O)c3ccccc3n2)CC1 [Sotrastaurin] (top concentration 10000 nM) | -1.7 | 0.3 | -2.3 | -0.1 | 4.5 | 2.8 | 2.9 | 6.4 | 4.7 | -2 | 2.3 | 0 | -1.7 | 3.5 | 4.8 | 3.1 | 5.8 | 4 | 2.7 | 5.2
8 | Cc1cc(C(C)Nc2ccccc2)c2nc(N3CCOCC3)cc(=O)n2c1 (stereo not given) [TGX-221] (top concentration 10000 nM) | -0.74 | -1.64 | -0.94 | -0.54 | -1.64 | -1.64 | -1.64 | -1.64 | -1.64 | -1.14 | 7.86 | -0.04 | 0.66 | 2.36 | -0.84 | 3.36 | -1.64 | -0.74 | -1.64 | 1.76
9 | Cc1nc(-c2cn3c(n2)-c2ccc(-c4cnn(C(C)(C)C(N)=O)c4)cc2OCC3)n(C(C)C)n1 [Taselisib] (top concentration 1000 nM) | -2.6 | -4.3 | -4.3 | 3.9 | 7.4 | 4 | -4.3 | -0.9 | 4.1 | -4.3 | 11.1 | 1.5 | 3 | 2.3 | 5.7 | 12.2 | -4.3 | -4.3 | 1.2 | 10.9
10 | Cn1cncc1[C@@](N)(c1ccc(Cl)cc1)c1ccc2c(c1)c(-c1cccc(Cl)c1)cc(=O)n2C [Tipifarnib] (top concentration 10000 nM) | 3.6 | 2.8 | -7.5 | 10.3 | 9.2 | -1.3 | 6.8 | 11.2 | 8.2 | 11.9 | 6.3 | 20.9 | 6.8 | 9.4 | 14 | 3.5 | 7 | 10 | 11.1 | 6.6
11 | CN(C)CCOc1ccc(/C(=C(/CCCl)c2ccccc2)c2ccccc2)cc1 [Toremifene] (top concentration 10000 nM) | -0.42 | 6.78 | -2.62 | -0.02 | 1.58 | 5.68 | 0.78 | 0.98 | 3.48 | 2.48 | 3.18 | 0.58 | 2.58 | 1.48 | -1.52 | 0.58 | -2.52 | 1.28 | 1.28 | -2.72
12 | CC(=O)Nc1cccc(-n2c(=O)n(C3CC3)c(=O)c3c(Nc4ccc(I)cc4F)n(C)c(=O)c(C)c32)c1 [Trametinib] (top concentration 250 nM) | -7.94 | 2.16 | -7.74 | -1.84 | 3.56 | 5.86 | 0.16 | 4.36 | -0.74 | 6.96 | 2.36 | -8.04 | -4.54 | -1.54 | -8.04 | -8.04 | 9.46 | -4.44 | -8.04 | -2.54
13 | O=C(CCCCCCC(=O)Nc1ccc([C@H]2O[C@@H](CSc3nc(-c4ccccc4)c(-c4ccccc4)o3)C[C@@H](c3ccc(CO)cc3)O2)cc1)NO [Tubacin] (top concentration 10000 nM) | 4.14 | 5.54 | 2.74 | 8.74 | 20.4 | 4.14 | 12.9 | 16.9 | 15.9 | 8.34 | 2.14 | 7.64 | 8.34 | 15.8 | 7.44 | 7.44 | 17.8 | 7.14 | 9.84 | 5.04
14 | CN1CCc2c(c3ccccc3n2Cc2ccc(C(=O)NO)cc2)C1 [Tubastatin_A] (top concentration 10000 nM) | 0.36 | 2.66 | -0.14 | 2.06 | 11.7 | 7.06 | -0.14 | 9.86 | 8.86 | 1.06 | 1.76 | 1.86 | -0.04 | 2.06 | 5.86 | 6.96 | 18 | 3.36 | 3.36 | 7.46
15 | C[C@]1(c2nc3c(C(N)=O)cccc3[nH]2)CCCN1 [Veliparib] (top concentration 10000 nM) | -3.28 | -4.18 | -4.18 | -4.18 | -2.78 | 2.82 | -4.18 | 5.52 | 1.02 | 0.22 | 1.02 | -3.88 | -2.88 | -2.18 | -4.18 | 4.42 | 0.42 | -4.18 | -4.18 | -3.48
16 | CS(=O)(=O)c1ccc(C(=O)Nc2ccc(Cl)c(-c3ccccn3)c2)c(Cl)c1 [Vismodegib] (top concentration 10000 nM) | -1.14 | 2.76 | -1.14 | -1.14 | 0.76 | 3.96 | 1.26 | 6.76 | 5.56 | -1.14 | -1.14 | -1.14 | -0.44 | -1.14 | -1.14 | 0.36 | -1.14 | -0.94 | 0.36 | -1.14
